Molecules are shown by their SMILES. Structures can show the parent of a compound that is named as a salt.

One experiment relates to asynchronous 3D7 chloroquine-sensitive P. falciparum infected red blood cells. The experiment can be described thus: Labeled hypoxanthine incorporation assay (in vitro anti-malarial activity). The experiment is classed as cell-based. As to conditions: 3D7 chloroquine-sensitive strain, infected RBC, 48 h contact, [3H]-hypoxanthine incorporation; two independent experiments in duplicates; read-out: IC50 assessed on Plasmodium Falciparum.
As a reminder, the IC50 is the concentration that gives 50% inhibition. On to `C[C@@H](COC(=O)N1CCC(n2c(=O)[nH]c3ccccc32)CC1)N(Cc1ccccc1)Cc1ccc(Br)cc1` [Compound 116, S)-2-(benzyl(4-bromobenzyl)amino)propyl 4-(2-oxo-2,3-dihydro-1H-benzo[d]imidazol-1-yl)piperidine-1-carboxylate hydrochloride], for which the IC50 was 2.88 µM.

Staying with this experiment, now noted: Plasmodium falciparum, 3D7, Erythrocyte, 3D7 chloroquine-sensitive strain, infected RBC, 48 h contact, [3H]-hypoxanthine incorporation; two independent experiments in duplicates; read-out: IC50 assessed on Plasmodium Falciparum.
As for `C[C@@H]1CC[C@H]2[C@@H](C)C(=O)O[C@@H]3O[C@@]4(C)CC[C@@H]1[C@]32OO4` [Artemisinine, reference compound], the IC50 is 0.0287 µM.
Same read-out and setting: the result for `C[C@@H](COC(=O)N1CCC(n2c(=O)n(S(=O)(=O)c3cccc4cccnc34)c3ccccc32)CC1)N(Cc1ccccc1)Cc1ccccc1` [Compound 60, (S)-2-(dibenzylamino)propyl 4-(2-oxo-3-(quinolin-8-ylsulfonyl)-2,3-dihydro-1H-benzo[d]imidazol-1-yl)piperidine-1-carboxylate] reads 0.78 µM; that for `O=C(OCCN(Cc1ccccc1)Cc1ccc(OCc2ccccc2)cc1)N1CCC(n2c(=O)[nH]c3ccccc32)CC1` [Compound 100, 2-(benzyl(4-(benzyloxy)benzyl)amino)ethyl 4-(2-oxo-2,3-dihydro-1H-benzo[d]imidazol-1-yl)piperidine-1-carboxylate], 3.15 µM.
In the case of `O=C(OCCN(Cc1ccccc1)Cc1c(F)cccc1F)N1CCC(n2c(=O)[nH]c3ccccc32)CC1` [Compound 101, 2-(benzyl(2,6-difluorobenzyl)amino)ethyl 4-(2-oxo-2,3-dihydro-1H-benzo[d]imidazol-1-yl)piperidine-1-carboxylate], the IC50 was 5.37 µM.
On the same count and under the same terms, the result for `C[C@@H](COC(=O)N1CCC(n2c(=O)[nH]c3ccccc32)CC1)N(Cc1ccccc1)Cc1ccco1` [Compound 102, (S)-2-(benzyl(furan-2-ylmethyl)amino)propyl 4-(2-oxo-2,3-dihydro-1H-benzo[d]imidazol-1-yl)piperidine-1-carboxylate] reads 7.47 µM.
Same read-out and setting: the result for `O=C(OCCN(Cc1ccccc1)Cc1cccc(OCc2ccccc2)c1)N1CCC(n2c(=O)[nH]c3ccccc32)CC1` [Compound 103, 2-(benzyl(3-(benzyloxy)benzyl)amino)ethyl 4-(2-oxo-2,3-dihydro-1H-benzo[d]imidazol-1-yl)piperidine-1-carboxylate] reads 3.57 µM; that for `O=C(OCCN(C/C=C/c1ccccc1)Cc1ccccc1)N1CCC(n2c(=O)[nH]c3ccccc32)CC1` [Compound 104, (E)-2-(benzyl(cinnamyl)amino)ethyl 4-(2-oxo-2,3-dihydro-1H-benzo[d]imidazol-1-yl)piperidine-1-carboxylate], 4.97 µM.
The same measure, in the same setting: the result for `CC(C)(C)OC(=O)N(Cc1ccccc1)[C@H](COC(=O)N1CCC(n2c(=O)[nH]c3ccccc32)CC1)Cc1ccccc1` [Compound 106, (S)-2-(benzyl(tert-butoxycarbonyl)amino)-3-phenylpropyl 4-(2-oxo-2,3-dihydro-1H-benzo[d]imidazol-1-yl)piperidine-1-carboxylate] reads 0.828 µM; that for `CC(C)[C@@H](COC(=O)N1CCC(n2c(=O)[nH]c3ccccc32)CC1)N(Cc1ccccc1)Cc1ccccc1` [Compound 107, (S)-2-(dibenzylamino)-3-methylbutyl 4-(1,2-dihydro-2-oxobenzo[d]imidazol-3-yl)piperidine-1-carboxylate], 2.81 µM.
As for `CC(C)(C)C(COC(=O)N1CCC(n2c(=O)[nH]c3ccccc32)CC1)N(Cc1ccccc1)Cc1ccccc1` (centres unmarked) [Compound 109, 2-(dibenzylamino)-3,3-dimethylbutyl 4-(1,2-dihydro-2-oxobenzo[d]imidazol-3-yl)piperidine-1-carboxylate], the half-inhibitory concentration (IC50) amounted to 2.4 µM.
The same measure, in the same setting: the value for `CC(C)(COC(=O)N1CCC(n2c(=O)[nH]c3ccccc32)CC1)N(Cc1ccccc1)Cc1ccccc1` [Compound 111, 2-(dibenzylamino)-2-methylpropyl 4-(1,2-dihydro-2-oxobenzo[d]imidazol-3-yl)piperidine-1-carboxylate] was 2.28 µM; that for `C[C@@H](COC(=O)N1CCC(n2c(=O)[nH]c3ccccc32)CC1)N(Cc1ccccc1)Cc1ccc([N+](=O)[O-])cc1` [Compound 113, (S)-2-(benzyl(4-nitrobenzyl)amino)propyl 4-(2-oxo-2,3-dihydro-1H-benzo[d]imidazol-1-yl)piperidine-1-carboxylate] was 2.45 µM; that for `COc1ccc(CN(CCCOC(=O)N2CCC(n3c(=O)[nH]c4ccccc43)CC2)Cc2ccccc2)cc1` [Compound 117, 3-(benzyl(4-methoxybenzyl)amino)propyl 4-(2-oxo-2,3-dihydro-1H-benzo[d]imidazol-1-yl)piperidine-1-carboxylate hydrochloride] was 1.87 µM.
Same read-out and setting: the result for `O=C(OCCN(Cc1ccccc1)Cc1cccc(Cl)c1)N1CCC(n2c(=O)[nH]c3ccccc32)CC1` [Compound 124, 2-(benzyl(3-chlorobenzyl)amino)ethyl 4-(2-oxo-2,3-dihydro-1H-benzo[d]imidazol-1-yl)piperidine-1-carboxylate hydrochloride] reads 3.31 µM; that for `C[C@@H](COC(=O)N1CCC(n2c(=O)[nH]c3ccccc32)CC1)N(Cc1ccccc1)Cc1cccc(Oc2ccccc2)c1` [Compound 127, (S)-2-(benzyl(3-phenoxybenzyl)amino)propyl 4-(2-oxo-2,3-dihydro-1H-benzo[d]imidazol-1-yl)piperidine-1-carboxylate hydrochloride], 2.67 µM.
In the case of `C[C@@H](COC(=O)N1CCC(n2c(=O)[nH]c3ccccc32)CC1)N(Cc1ccccc1)Cc1ccc(Cl)cc1` [Compound 129, (S)-2-(benzyl(4-chlorobenzyl)amino)propyl 4-(2-oxo-2,3-dihydro-1H-benzo[d]imidazol-1-yl)piperidine-1-carboxylate hydrochloride], the IC50 was determined as 3.63 µM.
The same measure, in the same setting: the value for `O=C(OCCN(Cc1ccccc1)Cc1cccc2ccccc12)N1CCC(n2c(=O)[nH]c3ccccc32)CC1` [Compound 130, 2-(benzyl(naphthalen-1-ylmethyl)amino)ethyl 4-(2-oxo-2,3-dihydro-1H-benzo[d]imidazol-1-yl)piperidine-1-carboxylate hydrochloride] was 3.87 µM; that for `O=C(OCCCN(Cc1ccccc1)Cc1cccnc1)N1CCC(n2c(=O)[nH]c3ccccc32)CC1` [Compound 134, 3-(benzyl(pyridin-3-ylmethyl)amino)propyl 4-(2-oxo-2,3-dihydro-1H-benzo[d]imidazol-1-yl)piperidine-1-carboxylate hydrochloride] was 1.29 µM; that for `O=C(OCCCN(CCOCc1ccccc1)Cc1ccccc1)N1CCC(n2c(=O)[nH]c3ccccc32)CC1` [Compound 143, 3-(benzyl(2-(benzyloxy)ethyl)amino)propyl 4-(2-oxo-2,3-dihydro-1H-benzo[d]imidazol-1-yl)piperidine-1-carboxylate hydrochloride] was 4.27 µM.
For `O=C(OCCCN(Cc1ccccc1)Cc1ccc(F)cc1)N1CCC(n2c(=O)[nH]c3ccccc32)CC1` [Compound 147, 3-(benzyl(4-fluorobenzyl)amino)propyl 4-(2-oxo-2,3-dihydro-1H-benzo[d]imidazol-1-yl)piperidine-1-carboxylate hydrochloride], the IC50 turned out to be 2.22 µM.

The same experiment, now with this note: Plasmodium falciparum, 3D7, Erythrocyte, read-out: IC50 assessed on Plasmodium Falciparum.
In the case of `C[C@H]1[C@H](OC(=O)CCC(=O)O)O[C@@H]2O[C@@]3(C)CC[C@H]4[C@H](C)CC[C@@H]1[C@@]24OO3` [Artesunate, reference compound], the half-maximal inhibitory concentration (IC50) is 0.0097 µM.
As for `CCN(CC)CCCC(C)Nc1ccnc2cc(Cl)ccc12` (centres unmarked) [Chloroquine, reference compound], the IC50 worked out at 0.0103 µM.

The record behind these values is patent US20100292214A1, “Compounds with Antiparasitic Activity, Applications thereof to the Treatment of Infectious Diseases Caused by Apicomplexans” (commissariat a l'Energie Atomique, priority 2007, published 2010).
